Here are results for nine molecules from patent US8372837B2, “Pyridone and pyridazone analogues as GPR119 modulators” (Bristol-Myers Squibb Company, priority 2008, dated 2013).

The assay addresses T1, hGPR119 (Homo sapiens, UniProt Q8TDV5).
T1 construct: expressed in transfected cells; host or cells: Flp-In T-REx 293 (tetracycline-inducible)
T1 sequence (Q8TDV5 1-335): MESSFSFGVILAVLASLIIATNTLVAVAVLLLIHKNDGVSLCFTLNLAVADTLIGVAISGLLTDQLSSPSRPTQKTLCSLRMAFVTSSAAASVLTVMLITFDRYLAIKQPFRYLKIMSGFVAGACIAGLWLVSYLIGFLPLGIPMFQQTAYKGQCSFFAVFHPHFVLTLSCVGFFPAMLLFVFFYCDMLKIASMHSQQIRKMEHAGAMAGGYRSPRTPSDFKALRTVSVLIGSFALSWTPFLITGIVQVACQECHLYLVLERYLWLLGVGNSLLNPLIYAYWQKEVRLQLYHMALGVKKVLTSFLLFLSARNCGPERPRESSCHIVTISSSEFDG
Put plainly: Human Tet-inducible cAMP assay. The assay is classed as cell-based. As to conditions: Flp-In T-REx 293 tetracycline inducible cells expressing GPR119; cAMP by HITHUNTER kit; 1 hour incubation. As to the method: The in vitro modulation of recombinant human GPR119 was determined as follows.
Human Tet-Inducible cAMP Assay
Cell lines expressing GPR119 are generated using the Flp-In T-REx 293 tetracycline inducible gene expression system are cultured in culture medium comprising the following components: DMEM#11965, 10% FBS, 2 mM L-glutamine, 200 ug/ml Hygromycin B, and 15 ug/ml blasticidin.
For cAMP assays, cells are plated on 96 well plates (e.g., BD Falcon: REF 353948, black side, clear bottom, TC surface) at a density of about 4.5×10^4 cells per well in growth medium containing 1.0 ug/ml tetracycline (1.0 mg/ml stock). The cells are then incubated for 48 hours at 37° C.
Following the incubation, the growth medium is removed from the wells and the wells rinsed (once) with the assay buffer included in the HITHUNTER® cAMP kit (100 μl/well). Following the wash, 20 μl of assay buffer is added to each well, followed by addition of 10 μl of a 3× concentration compound working solution. The solution is then mixed. The final concentration range of compound is from about 10^−5M to about 10^−11 M. The reagents are then incubated at 37° C. at 5% CO2 for 1 hour.
The manufacturer's protocol may be followed for cAMP determination. The HITHUNTER® cAMP kit protocol is outlined for the HIT-T15 cAMP assays described above.
Compounds of the present invention were tested in the Human Tet-inducible cAMP assay described immediately above and the results shown in Table 1 below were obtained.
(In general: Changes in cAMP serve as a functional read-out for many G protein-coupled receptors.)

Usually EC50 stands for the concentration needed to bring the measured effect to its halfway point. High values mean a need for much substance, low ones an effect from little substance. Consider `CC(=O)c1cnc(N2CCC(Oc3cnn(-c4ccc(S(C)(=O)=O)cc4)c(=O)c3)CC2)nc1` [Example 11, 5-(1-(5-Acetylpyrimidin-2-yl)piperidin-4-yloxy)-2-(4-(methylsulfonyl)phenyl)pyridazin-3(2H)-one], for which the response was half-maximal at 4600 nM (EC50).
To `CC(C)(C)OC(=O)N1CCC(Oc2cc(=O)n(-c3ccc(Cl)c(Cl)c3)nc2C(N)=O)CC1` [Example 16, tert-Butyl 4-(3-carbamoyl-1-(3,4-dichlorophenyl)-6-oxo-1,6-dihydropyridazin-4-yloxy)piperidine-1-carboxylate] belongs 3390 nM; to `COC(=O)c1nn(-c2ccc(S(C)(=O)=O)cc2)c(=O)cc1OC1CCN(C(=O)OC(C)(C)C)CC1` [Example 18, Methyl 4-(1-(tert-butoxycarbonyl)piperidin-4-yloxy)-1-(4-(methylsulfonyl)phenyl)-6-oxo-1,6-dihydropyridazine-3-carboxylate], 4010 nM; to `N#Cc1nn(-c2ccc(Cl)c(Cl)c2)c(=O)cc1OC1CCN(c2ncc(C(F)(F)F)cn2)CC1` [Example 26, 1-(3,4-Dichlorophenyl)-6-oxo-4-(1-(5-(trifluoromethyl)pyrimidin-2-yl)piperidin-4-yloxy)-1,6-dihydropyridazine-3-carbonitrile], 5 nM.
The figure for `CC(C)(C)OC(=O)N1CCC(Oc2cc(=O)n(-c3ccc(S(C)(=O)=O)cc3)nc2C#N)CC1` [Example 31, tert-Butyl 4-(3-cyano-1-(4-(methylsulfonyl)phenyl)-6-oxo-1,6-dihydropyridazin-4-yloxy)piperidine-1-carboxylate] is 83 nM; for `CC(C)(C)OC(=O)N1CCC(Oc2cc(=O)n(-c3ccc(C#N)c(F)c3)nc2C#N)CC1` [Example 34, tert-Butyl 4-(3-cyano-1-(4-cyano-3-fluorophenyl)-6-oxo-1,6-dihydropyridazin-4-yloxy)piperidine-1-carboxylate] it is 3 nM; for `CCCc1cnc(N2CCC(Oc3cc(=O)n(-c4ccc(C#N)c(F)c4)nc3C#N)CC2)nc1` [Example 38, 1-(4-Cyano-3-fluorophenyl)-6-oxo-4-(1-(5-propylpyrimidin-2-yl)piperidin-4-yloxy)-1,6-dihydropyridazine-3-carbonitrile] it is 8 nM.
The figure for `COC(=O)c1nn(-c2ccc(C#N)c(F)c2)c(=O)cc1OC1CCN(c2ncc(Br)cn2)CC1` [Example 42, Methyl 4-(1-(5-bromopyrimidin-2-yl)piperidin-4-yloxy)-1-(4-cyano-3-fluorophenyl)-6-oxo-1,6-dihydropyridazine-3-carboxylate] is 107 nM.
`CC(C)(C)OC(=O)N1CCC(Oc2cc(=O)n(-c3ccc(Br)c(F)c3)nc2C#N)CC1` [Example 45, tert-Butyl 4-(1-(4-bromo-3-fluorophenyl)-3-cyano-6-oxo-1,6-dihydropyridazin-4-yloxy)piperidine-1-carboxylate] showed a 50% effective concentration (EC50) of 95 nM.
